Literature values as cited in patent publication US20220047541A1, “PHARMACEUTICAL COMPOSITIONS AND METHODS FOR TREATING PARKINSON'S DISEASE” (Pike Therapeutics, Inc., priority 2020, published 2022).

Assays:
[1] = target: CB2 (Homo sapiens, UniProt P34972); details: given as ×, fold or times
Chain of CB2 (P34972 whole entry, species assumed): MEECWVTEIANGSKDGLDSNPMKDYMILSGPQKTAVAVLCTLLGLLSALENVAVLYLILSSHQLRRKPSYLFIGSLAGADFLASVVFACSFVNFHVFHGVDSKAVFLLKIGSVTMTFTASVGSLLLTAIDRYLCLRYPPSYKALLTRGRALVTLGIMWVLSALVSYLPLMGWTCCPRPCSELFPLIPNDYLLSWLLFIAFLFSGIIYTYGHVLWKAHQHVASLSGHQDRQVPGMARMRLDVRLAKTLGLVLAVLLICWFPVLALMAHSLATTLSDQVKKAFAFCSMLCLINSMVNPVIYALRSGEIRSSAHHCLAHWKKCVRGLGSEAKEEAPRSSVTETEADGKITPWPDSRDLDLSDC

Structure (SMILES)	selectivity for CB2 over CB1 [1]	solubility in water
CCCCCCC(C)(C)c1cc(OC)c2c(c1)OC(C)(C)C1CCC(O)CC21 (stereo not drawn) [JWH-350, 11-nor-1-methoxy-3-(1′,1′-dimethylheptyl)-9α-hydroxyhexahydrocannabinol]	33 fold	
CCCn1c(C)c(C(=O)c2ccc(C)c3ccccc23)c2ccccc21 [JWH-148]	more than 8 fold	
CCCCCCC(C)(C)c1cc(O)c2c(c1)oc(=O)c1ccc(OC)cc12 [AM-1710]	54 fold	
CCCn1cc(C(=O)c2ccc(C)c3ccccc23)c2ccccc21 [JWH-120]	173 fold	
N[C@@H](Cc1ccc(O)c(O)c1)C(=O)O [Levodopa, L-3,4-dihydroxyphenylalanine (S)-2-amino-3-(3,4-dihydroxyphenyl)propanoic acid]		slightly soluble
